Where no end group is shown, it is not given here.
Legend:
[1] = tested on: B16-F10 cells; assay: CCK-8 cell viability assay, B16-F10 cells; type: cell-based, mouse; conditions: 50 μM, 24 h of treatment, serum-free medium (Figure 3B)
Procedure: Mouse skin melanoma cells (B16-F10) were cultured in RPMI-1640 (Gibco), and mouse fibroblast cells (L-929), human lung carcinoma cells (A549), mouse breast cells (4T1), human hepatocarcinoma cells (HepG2), and human cervical carcinoma cells (Hela) were cultured in Dulbecco’s Modified Eagle Medium (DMEM, Gibco). All culture medium contained 10% fetal bovine serum (serum, Gibco), 100 U/mL of penicillin, and […] of streptomycin at 37 °C with 5% CO2.
Cell viability was quantified using a CCK-8 assay. At first, cells were seeded into a 96-well plate at approximately 2 × 10^3 cells/well. The following day, we created a 2-fold dilution series of each peptide using fresh medium (with or without 10% serum) for the treated cells, and cell viability was detected at 450 nm via a CCK-8 assay using an Absorbance Microplate Reader (BioTek Instruments, Winooski, VT, USA) following 24 h of drug incubation. The activity curves and IC50 values of the peptides were visualized using GraphPad prism 5.0.

[2] = tested on: erythrocytes; assay: Hemolytic activity; type: cell-based; conditions: 1% RBC in PBS, 30 min at 37 °C, absorbance 450 nm, 0.1% Triton-X 100 positive control
Procedure: The hemolytic activity levels of LVTX-9 and LVTX-9-C18 were confirmed as follows. Red blood cells (RBC) were washed with sterile PBS and centrifuged for 5 min at 1000 rpm. The supernatant was removed, and cells were resuspended in PBS at a final concentration of 1% (5 × 10^6/mL). The diluted RBC suspension (50 µL) was mixed with PBS (negative control), 0.1% Triton-X 100 (positive control), and LVTX-9 or LVTX-9-C18 with various concentrations at a 1:1 ratio. The mixtures were incubated for 30 min at 37 °C, then centrifuged for 5 min at 12,000 rpm. The supernatant (90 µL) was added to a new 96-well plate to measure the absorbance at 450 nm using a microplate reader, and we produced hemolytic activity curves by GraphPad prism 5.0.

[3] = tested on: B16-F10 cells; assay: Scanning electron microscopy of cell membrane; type: cell-based, mouse; conditions: 50 μM, 24 h
Procedure: The morphologic changes of the cell membrane of B16-F10 cells treated with peptides were observed by SEM [14]. The cells were seeded on coverslips and placed into a six-well plate, then treated with LVTX-9 (50 μM) and LVTX-9-C18 (5 μM) for 24 h. After incubation, the B16-F10 cells were washed with sterile PBS gently three times and fixed with 2 mL of 2.5% glutaraldehyde solution in each well for 4 h at room temperature. Then, the fixed cells were dehydrated with a series of ethanol concentrations. We dried the samples with a Critical Point Dryer and coated them with gold plating before observation. A scanning electron microscope (Hitachi Su8010, Tokyo, Japan) was used to examine the prepared samples.

[4] = tested on: B16-F10 cells; assay: Trypan blue staining; type: cell-based, mouse; conditions: 50 μM, 24 h, 0.04% trypan blue 4 min
Procedure: B16-F10 cells were seeded into a 48-well plate (2 × 10^3 cells/well) for 24 h and treated with LVTX-9 (50 μM) and LVTX-9-C18 (5 μM) for 24 h. The cells were washed with PBS gently and stained with 0.04% Trypan blue for 4 min. Dead cells were stained blue.

[5] = Circular dichroism secondary structure; type: physicochemical; conditions: 100 µM, 25 °C, 180-280 nm
Procedure: Dynamic light scattering (DLS) of Zetasizer Nano ZSP (Malvern Instruments, Malvern, UK) apparatus was used to determine the hydrodynamic size and zeta potential of LVTX-9 and LVTX-9-C18. The peptides concentrations were diluted to 100 µM with ultrapure water with a final volume of 1 mL. The procedure ran at 25 °C, with each experiment repeated three times. The secondary structures of LVTX-9 and LVTX-9-C18 were determined to be in line with the previous protocol. The peptide concentrations were then diluted to 100 µM with ultrapure water and 100 mM of SDS was added in a final volume of 250 μL. The procedure was carried out at 25 °C. CD spectra were recorded between 180 nm and 280 nm on a Jasco J-815 CD spectrometer.

[6] = RP-HPLC retention time as measure of hydrophobicity; type: physicochemical; conditions: chromatographic, Vydac C18 300 Å 4.6 × 250 mm, 1.0 mL/min, gradient 30-100% acetonitrile/0.1% TFA, 215 nm, column 25 ± 5 °C; maximum height of peak
Procedure: Peptides were synthesized using the Fmoc SPPS methods. Briefly, the peptide LVTX-9 (AC-[…]-amide) was prepared on Rink Amide AM resin at a 0.2 mmol scale. A 4-fold excess of the Fmoc-protected amino acids was coupled with the Rink Amide AM resin using HCTU and HOBT as the activating agents in 5% NMM/DMF. After the synthesis of LVTX-9, the N-terminal Fmoc group was removed using 20% piperidine. As in the previous steps, a series of fatty acids (C12-C20) was activated in HCTU and HOBT using 5% NMM/DMF, and coupled to peptidyl resin for 2 h. Peptides were cleaved using trifluoroacetic acid (TFA)/thioanisole (TIS)/anisole (95:3:2 (v/v)) for 2.5 h, and the collected lysate was precipitated in cold diethyl ether three times. The precipitate was air-dried naturally. Next, the obtained crude products were purified using RP-HPLC (C18, 4.6 mm × 250 mm) on the basis of a 0.1% TFA/acetonitrile gradient from 30% to 100% in 46 min. Then, we collected the eluted peptides and determined the molecular mass using MALDI-TOF MS (AB, SCIEX, Waltham, MA, USA).
Figure 2 Purification and identification of five lipopeptides using RP-HPLC and MALDL-TOF MS: The purification of (A) LVTX-9-C12, (B) LVTX-9-C14, (C) LVTX-9-C16, (D) LVTX-9-C18, and (E) LVTX-9-C20 was performed using RP-HPLC (column, Vydac, C18, 300 Å, 4.6 × 250 mm). The lipopeptides were separated at a flow rate of 1.0 mL/min under a gradient of 30–100% acetonitrile/0.1% TFA. The elution of lipopeptides was monitored at 215 nm. Identification of (F) LVTX-9-C12, (G) LVTX-9-C14, (H) LVTX-9-C16, (I) LVTX-9-C18, and (J) LVTX-9-C20 by MALDI-TOF MS, respectively. The red star (*) represents the target peak. […]
Table S1. Purification gradient of peptides.
Time (min) Flow Rate (mL/min) A% B%
Wavelength: 215 nm/280 nm, column temperature: 25 ± 5 ℃, A: ddH2O (0.1% TFA), B: acetonitrile
(1 picture or pasted object on this page, not shown here)

Substance: ASIGALIQKAIALIKAKAA-NH2 (C-terminus assumed) [LVTX-9]
- effect on cell viability at 50 μM [1]: no significant effect on cell viability
- hemolytic activity at 200 μM [2]: almost no hemolytic activity
- cell membrane morphology by SEM at 50 μM [3]: intact membranes with smooth surfaces
- trypan blue staining at 50 μM [4]: almost unstained
- secondary structure (CD) in 100 mM of SDS ([5]; 100 mM SDS): α-helical conformation
- secondary structure (CD) in ultrapure water ([5]; ultrapure water): random coil conformation
- TR (retention time, RP-HPLC; indicates the hydrophobicity of the peptides) [6]: 15.21 min
